The values that follow come from article PMC12652692, “Synthesis and In Vitro Anticancer Evaluation of Novel Phosphonium Derivatives of Chrysin” (International Journal of Molecular Sciences, 2025).

Each structure is given as a SMILES string.

The subject of one series is Colon Cancer panel. In words: NCI60 five-dose screen, panel mean. The format is cell-based. The following applies: Homo sapiens; mean over Colon Cancer panel. The protocol: (§1) Since all new conjugates (3a–h) had notable antiproliferative activities on several tumor cell lines in the course of the one-dose screening, they were subjected to a five-dose test. […] J. Mol. Sci. 2025, 26, 11063 10 of 10 S.3. NCI60 Screening A detailed description of the NCI screening procedures can also be found on the website of NCI [39], and in our previous work. S.3.1. One-Dose Screen All candidates were examined at first at a single high dose (10 μM) in the full NCI60 cell panel. The value reported for the one-dose test is growth relative to the no-drug control and relative to the time zero number of cells. This made possible the disclosure of both growth inhibition (numbers between 0 and 100) and lethality (numbers less than 0). For example, a value of 100 means no growth inhibition. A value of 20 would mean 80% growth inhibition. A value of 0 means no net growth over the course of the analysis. A value of −20 would mean 20% lethality. A value of −100 means all cells are dead. S.3.2. […] The human tumor cell lines of the cancer screening panel were grown in RPMI 1640 medium containing 5% fetal bovine serum and 2 mM l-glutamine. Characteristically, cells were injected in 96-well microtiter plates in 0.1 mL at plating densities ranging from 5000 to 40,000 cells/well, depending on the doubling time of individual cell lines. After cell inoculation, the microtiter plates were incubated at 37 °C, 5% carbon dioxide, 95% air, and 100% relative humidity for 24 hours before the addition of tested compounds. After 24 hours, 2 plates of each cell line were fixed in situ with Cl3COOH (TCA), to represent a measurement of the cell population for each cell line at the time of drug addition (tz). Tested compounds were solubilized in DMSO at 400-fold the desired final maximum test concentration and stored frozen before application. In the course of the drug addition, an aliquot of frozen concentrate was thawed and diluted to twice the desired final maximum test concentration with a complete medium containing 50 μg mL−1 gentamicin. Additional four, 10-fold or ½ log serial dilutions were produced to furnish a total of five drug concentrations plus control. Aliquots of 0.1 mL of these different drug dilutions were added to the appropriate microtiter wells already containing 0.1 mL of medium, resulting in the required final drug concentrations. Following drug addition, the plates were incubated at 37 °C, 5% carbon dioxide, 95% air, and 100% relative humidity for an additional 48 hours. For adherent cells, the test was finished by the addition of cold Cl3COOH. Cells were fixed in situ by the addition of 50 μL of cold 50% (w/v) Cl3COOH, and incubated at 4 °C for 1 hour. The supernatant was discarded, and the plates were washed with H2O (5×) and dried in air. Sulforhodamine B (SRB) solution (0.1 mL) at 0.4% (w/v) in 1% CH3COOH was added to each well, and plates were incubated at RT for 10 min. After staining, the unbound dye was removed by washing five times with 1% CH3COOH, and the plates were dried in the air. The bound stain is afterward solubilized with a 10 mM trizma base, and the absorbance is read on an automated plate reader at λ = 515 nm. Utilizing the seven absorbance measurements [time zero (tz), control growth (c), and test growth in the presence of the drug at the five concentration levels (ti)], the percentage growth was determined at each of the drug concentration levels. Growth inhibition (%) was calculated as: [(ti − tz)/(c − tz)] × 100, for concentrations where ti ≥ tz (1) [(ti − tz)/(tz)] × 100, for concentrations where ti < tz. (2) Three dose‒response parameters were calculated as follows. GI50 (growth inhibition of 50%) was determined from Equation (3), which is the drug concentration resulting in a 50% reduction in the net protein increase (as measured by SRB staining) in control cells in the course of the drug incubation. [(ti − tz)/(c − tz)] × 100 = 50 (3)

The subject of the next series is Breast Cancer panel. In words: NCI60 five-dose screen, panel mean. It is filed as cell-based. The following applies: Homo sapiens; mean over Breast Cancer panel. The protocol:
as §1

Series [1] relates to Non-small-Cell Lung Cancer panel. In words: NCI60 five-dose screen, panel mean. It is filed as cell-based. The following applies: Homo sapiens; mean over Non-small-Cell Lung Cancer panel. The protocol:
as §1

The next series has as its system CNS Cancer panel. The series is described as follows: NCI60 five-dose screen, panel mean. As to conditions: Homo sapiens; mean over CNS Cancer panel. The format is cell-based. The protocol:
as §1

A further series deals with Prostate Cancer panel. In words: NCI60 five-dose screen, panel mean. It is filed as cell-based. The following applies: Homo sapiens; mean over Prostate Cancer panel. The protocol:
as §1

Another series relates to Leukemia panel. In words: NCI60 five-dose screen, panel mean. It is filed as cell-based. The following applies: Homo sapiens; mean over Leukemia panel. The protocol:
as §1

A further series relates to Renal Cancer panel. In words: NCI60 five-dose screen, panel mean. The format is cell-based. As to conditions: Homo sapiens; mean over Renal Cancer panel. The protocol:
as §1

Another series relates to Ovarian Cancer panel. The series is described as follows: NCI60 five-dose screen, panel mean. It is filed as cell-based. The following applies: Homo sapiens; mean over Ovarian Cancer panel. The protocol:
as §1

The next series relates to Melanoma panel. In words: NCI60 five-dose screen, panel mean. The format is cell-based. The following applies: Homo sapiens; mean over Melanoma panel. The protocol: as §1
Another series concerns non-tumor CHO cells. The series is described as follows: CellTiter-Glo Luminescent Cell Viability Assay. It is filed as cell-based, Chinese hamster. As to conditions: 48 h; for IC50: Cricetulus griseus, non-tumor CHO cells, read-out: Estimated IC50. The protocol:
Given their potent antiproliferative effects on tumor cells, two conjugates were selected for testing on non-tumor CHO cells to investigate their selectivity. […] Cell viability of non-tumor CHO cells was assessed using the CellTiter-Glo Luminescent Cell Viability Assay (Promega, Madison, WI, USA), following treatment with 3a and 3f. Stock solutions (10 mM in DMSO) were stored frozen until use. CHO cells were cultured in complete DMEM (low glucose, 1 g/L) supplemented with 10% fetal bovine serum, 1% GlutaMAX-I, 1% non-essential amino acids, and 0.1% penicillin–streptomycin. Cells were seeded into opaque 96-well plates (5000 cells/100 µL/well), with peripheral wells filled with sterile PBS to minimize edge effects. After overnight incubation (37 °C, 5% CO2), cells were treated with increasing concentrations of the compounds (10^−5, 10^−6, and 10^−7 M) diluted in complete DMEM. Untreated cells served as controls, and complete DMEM was used to determine background luminescence. DMSO controls corresponding to the solvent concentrations of each treatment condition were also included; no significant effect on cell viability was observed. After 48 h, CellTiter-Glo reagent was added, and luminescence was measured using an EnSpire AlphaLisa microplate reader (Perkin Elmer). Relative light unit (RLU) values were normalized to untreated controls (100% viability). Non-linear regression analysis was performed in GraphPad Prism 8.0.1 to estimate IC50 values by fitting sigmoidal dose–response curves (log[inhibitor] vs. normalized response, variable slope).

Series [2] has as its system 60 human cancer cell lines. The series is described as follows: NCI60 five-dose screen, overall mean. It is filed as cell-based. As to conditions: mean over all 60 cell lines. The protocol: as §1
In series [3] the test system is 60 human cancer cell lines. On the set-up: method as in doi:10.3311/PPch.21919, PMID 34874114. The following applies: previous work ref 24, 26; cited from earlier work.

Regarding `O=c1cc(-c2ccccc2)oc2cc(OCCCC[P+](c3ccccc3)(c3ccccc3)c3ccccc3)cc(O)c12` [3a], the concentration for 50% growth inhibition (GI50) in the series with Colon Cancer panel was found to be 620 nM; in the series on Breast Cancer panel it was 240 nM; in [1], 460 nM; in the series on CNS Cancer panel it was 300 nM; with Prostate Cancer panel it was 410 nM; with Leukemia panel, 260 nM. For the same molecule, the GI50 with Renal Cancer panel came out at 530 nM; in the series with Ovarian Cancer panel it was 890 nM; in the series on Melanoma panel, 300 nM; in series [2], 455 nM. Also, in the series on non-tumor CHO cells (CHO cells, 10^−6 M), the cell viability entry is “minimally affected”. The IC50 in the series on non-tumor CHO cells was 2650 nM.
For the molecule `Cc1ccc([P+](CCCCOc2cc(O)c3c(=O)cc(-c4ccccc4)oc3c2)(c2ccc(C)cc2)c2ccc(C)cc2)cc1` [3b], the GI50 with Colon Cancer panel turned out to be 390 nM; in the series on Breast Cancer panel, 250 nM; in [1] it was 310 nM; in the series on CNS Cancer panel, 300 nM; with Prostate Cancer panel, 200 nM; in the series with Leukemia panel it was 220 nM. Also, the GI50 in the series with Renal Cancer panel was found to be 310 nM; with Ovarian Cancer panel, 480 nM; in the series with Melanoma panel, 320 nM; in series [2] it was 322 nM.
For the molecule `COc1ccc([P+](CCCCOc2cc(O)c3c(=O)cc(-c4ccccc4)oc3c2)(c2ccc(OC)cc2)c2ccc(OC)cc2)cc1` [3c], the 50% growth inhibitory concentration (GI50) with Colon Cancer panel was determined as 640 nM; in the series with Breast Cancer panel, 330 nM; in series [1], 590 nM; with CNS Cancer panel it was 460 nM; with Prostate Cancer panel, 370 nM; in the series on Leukemia panel, 340 nM. Besides, the concentration for 50% growth inhibition (GI50) in the series with Renal Cancer panel is 1030 nM; in the series on Ovarian Cancer panel, 760 nM; in the series on Melanoma panel, 350 nM; in [2] it was 565 nM.
Turning to `O=c1cc(-c2ccccc2)oc2cc(OCCCC[P+](c3ccc(F)cc3)(c3ccc(F)cc3)c3ccc(F)cc3)cc(O)c12` [3d], the GI50 was 1690 nM in the series on Colon Cancer panel; 1610 nM in the series on Breast Cancer panel; 1970 nM in series [1]; 1670 nM in the series on CNS Cancer panel; 1740 nM with Prostate Cancer panel; 1710 nM with Leukemia panel. The GI50 turned out to be 2100 nM in the series on Renal Cancer panel, 3900 nM with Ovarian Cancer panel, 1740 nM with Melanoma panel and 2050 nM in series [2].
For `O=c1cc(-c2ccccc2)oc2cc(OCCCC[P+](C3CCCCC3)(C3CCCCC3)C3CCCCC3)cc(O)c12` [3e], the GI50 is 940 nM with Colon Cancer panel; 590 nM with Breast Cancer panel; 1070 nM in series [1]; 750 nM in the series on CNS Cancer panel; 870 nM with Prostate Cancer panel; 420 nM in the series with Leukemia panel. Moreover, the concentration for 50% growth inhibition (GI50) worked out at 1300 nM in the series on Renal Cancer panel, 1950 nM in the series on Ovarian Cancer panel, 550 nM in the series with Melanoma panel and 957 nM in series [2].
With `COc1c(C)cc([P+](CCCCOc2cc(O)c3c(=O)cc(-c4ccccc4)oc3c2)(c2cc(C)c(OC)c(C)c2)c2cc(C)c(OC)c(C)c2)cc1C` [3f], the concentration for 50% growth inhibition (GI50) in the series on Colon Cancer panel was determined as 410 nM; in the series with Breast Cancer panel it was 220 nM; in series [1] it was 290 nM; with CNS Cancer panel, 280 nM; with Prostate Cancer panel it was 310 nM; in the series on Leukemia panel, 120 nM. In addition, the concentration for 50% growth inhibition (GI50) in the series on Renal Cancer panel is 320 nM; in the series on Ovarian Cancer panel, 510 nM; with Melanoma panel, 310 nM; in [2], 312 nM. Also, in the series with non-tumor CHO cells, the 50% inhibitory concentration (IC50) was 1150 nM.
`Cc1ccccc1[P+](CCCCOc1cc(O)c2c(=O)cc(-c3ccccc3)oc2c1)(c1ccccc1C)c1ccccc1C` [3g]: the 50% growth inhibitory concentration (GI50) in the series on Colon Cancer panel is 580 nM; in the series on Breast Cancer panel, 250 nM; in series [1] it was 450 nM; in the series on CNS Cancer panel, 330 nM; in the series on Prostate Cancer panel, 340 nM; in the series with Leukemia panel, 210 nM. Moreover, the GI50 in the series with Renal Cancer panel is 580 nM; in the series on Ovarian Cancer panel, 820 nM; in the series with Melanoma panel it was 270 nM; in series [2] it was 437 nM.
Turning to `O=c1cc(-c2ccccc2)oc2cc(OCCCC[P+](c3ccccc3)(c3ccccc3)c3ccccn3)cc(O)c12` [3h], the 50% growth inhibitory concentration (GI50) in the series with Colon Cancer panel amounted to 1070 nM; in the series with Breast Cancer panel, 530 nM; in series [1], 1070 nM; with CNS Cancer panel, 770 nM; in the series on Prostate Cancer panel, 900 nM; in the series on Leukemia panel, 260 nM. Further, the 50% growth inhibitory concentration (GI50) was determined as 1350 nM in the series with Renal Cancer panel, 1890 nM in the series with Ovarian Cancer panel, 520 nM with Melanoma panel and 949 nM in series [2].
As for `O=c1cc(-c2ccccc2)oc2cc(O)cc(O)c12` [compound 2, 5,7-dihydroxyflavone, reference compound], the “antiproliferative effects (in words)” value in [3] was “does not exert remarkable antiproliferative effects”.
